Assay results: patent publication EP4534147A1, “STING ANTAGONIST COMPOUNDS” (Sulis Therapeutics ApS, priority 2023, dated 2025)

Assays:
[1] = target: T1, STING (Homo sapiens, UniProt Q86WV6); assay: Human FB STING antagonist assay (IFN-a/b release); format: cell-based; conditions: Human skin fibroblasts, 2h pre-treatment, 300 nM GSK STING agonist (CAS number: 2138299-34-8) for 20 h, release of IFN-a/b by HEK-Blue IFN-α/β bioassay
T1 construct: endogenous in cells; host or cells: human skin fibroblasts
Method: STING antagonist activity can be determined by a human fibroblast antagonist assay. For this, human skin fibroblasts are pre-treated for 2h with a serial dilution of the compound, and are then stimulated for 20 hours with 300 nM STING agonist (e.g. from GSK, CAS number: 2138299-34-8). Supernatants are then harvested and assessed for IFN-a/b release, which indicates STING activation. IFN-a/b concentration in the supernatant is determined, e.g. using an IFN-α/β bioassay. IC50 values are calculated using a non-linear regression fitting, variable slope (4 parameters).
Human skin fibroblasts were pre-treated for 2h with a serial dilution of test compound followed by stimulation with mock or 300 nM GSK STING agonist (CAS number: 2138299-34-8). Supernatants were harvested after 20 h of STING agonist stimulation. Release of IFN-a/b was determined using HEK-Blue IFN-α/β bioassay (Invivogen). Cellular viability was assessed using Alamar Blue HS assay. IC50 values were estimated using a non-linear regression fitting, variable slope (4 parameters) in GraphPad Prism 9.3.1.

[2] = target: T2, C-terminal domain (CTD) of human STING (Homo sapiens, UniProt Q86WV6); assay: STING binding FP assay I (fluorescence polarization competition binding); parameters: recombinant human STING protein (155-379); conditions: recombinant human STING protein (155-379), 35 nM STING, 4 nM fluorescein-labelled STING ligand (Probe 1), 20 min at room temperature
Method: (§1) The interaction between molecules and the C-terminal domain (CTD) of human STING was evaluated using a competition binding assay. In this assay, recombinant human STING protein (155-379) and a STING binding fluorescent probe were employed. Upon binding of the probe to STING, the rotation of the fluorescent probe is slowed due to the larger molecular size of the protein-bound complex. As a result, emitted light retains its plane of polarization, leading to an increase in fluorescence polarization. Molecules competing for the probe binding site displace the probe, which leads to rapid randomization of the polarization plane of the emitted light and a subsequent decrease in measured fluorescence polarization signal. Change in polarization was measured, allowing a comparative evaluation of the binding affinities of different compounds to the target protein.
(§2) The assay was performed in 96-well plates (ThermoFisher, cat.# 237108) containing 100 µl : 10 µL test compound in 10% DMSO and buffer A (150 mM NaCl, 50 mM HEPES pH 7.5, 1 mM DTT) + 90 µL prepared master mix solution of: 4 nM fluorescein-labelled STING ligand (Probe 1; synthesis described above) in buffer A + 0.055% Tween-20 (v/v) and 35 nM STING in buffer A. Post mixing, plates were agitated at 600 rpm and incubated for 20 min at room temperature. Subsequent measurements of the fluorescence polarization signal were made on a BioTek Synergy-H1 plate reader, using a polarization filter; excitation: 485/20 nm, emission: 528/20 nm) with a gain-setting of 75. IC50 values were determined using a standard non-linear regression four-parameter curve fit in Graphpad Prism.
Target sequence in this assay (Q86WV6 155-379): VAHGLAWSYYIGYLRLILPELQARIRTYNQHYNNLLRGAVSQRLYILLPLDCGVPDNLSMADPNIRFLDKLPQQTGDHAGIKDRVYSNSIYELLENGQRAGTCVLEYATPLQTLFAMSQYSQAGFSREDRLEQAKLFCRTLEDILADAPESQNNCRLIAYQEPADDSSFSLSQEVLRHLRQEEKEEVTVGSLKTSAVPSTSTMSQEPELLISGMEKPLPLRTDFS

[3] = target: T2, C-terminal domain (CTD) of human STING; assay: STING binding FP assay II (as FP assay I, lower STING concentration); parameters: recombinant human STING protein (155-379); conditions: 7 nM STING in buffer A, 4 nM fluorescein-labelled STING ligand (Probe 1)
Method: as §1, §2
Target sequence in this assay (Q86WV6 155-379): as above
The procedure for STING binding FP assay II is the same as described for STING binding FP assay I, except for a lower STING concentration. In STING binding FP assay II, a concentration of 7 nM STING in buffer A was used.

[4] = target: T2, C-terminal domain (CTD) of human STING; assay: STING binding TR-FRET assay (CisBio Human STING WT Binding Kit); parameters: purchased CisBio 64BDSTGPEG; conditions: recombinant human STING with His-tag, D2-labeled active site probe, 60 min at room temperature
Method: STING binding can be determined by a time-resolved FRET assay. For instance, a STING protein having a His-tag can be used. A D2-labeled active site probe can be used to accept 620 nm emission from Anti-HIS-Tb-STING. Increased fluorescence is measured at 665 nm. Molecules that compete for the probe binding site will result in a lower 665 nm signal. The assay can be performed in low-volume white 96-well plates containing 5 µL compounds in an appropriate diluent buffer. Following 60 minutes incubation at room temperature in the dark, fluorescence emission at 665 nm is measured following 330 nm xenon flash excitation. pIC50 values can be determined using a standard four parameter curve fit.
The affinity of molecules to the C-terminal domain (CTD) of human STING was determined using a commercial Human STING WT Binding Kit (CisBio, cat.# 64BDSTGPEG). In this time-resolved FRET assay, a recombinant human STING protein construct with a His-tag was employed. When bound to STING, a D2-labeled active site probe accepts the 620 nm emission from Anti-HIS-Tb-STING and an increase in fluorescence is measured at 665 nm. Molecules that compete for the probe binding site will result in a low 665 nm signal. The assay was run in CisBio low-volume white 96-well plates (catalog# 66PL96005) containing 5 µL compounds in Diluent Buffer (supplied with the CisBio kit). A solution of 1xSTING, 1x Anti-HIS-Tb and 1X D2-probe in TB detection buffer (kit supplied) was added to the plate. Plates were centrifuged for 2 min at 500 rpm, incubated for 60 min at room temperature in the dark, and then fluorescence emission at 665 nm following 330 nm xenon flash excitation on an BioTek synergy H1 multimode reader (Agilent) was measured. The plC50 values were determined using a standard four parameter curve fit in GraphPad Prism.
Target sequence in this assay (Q86WV6 135-379 limits assumed): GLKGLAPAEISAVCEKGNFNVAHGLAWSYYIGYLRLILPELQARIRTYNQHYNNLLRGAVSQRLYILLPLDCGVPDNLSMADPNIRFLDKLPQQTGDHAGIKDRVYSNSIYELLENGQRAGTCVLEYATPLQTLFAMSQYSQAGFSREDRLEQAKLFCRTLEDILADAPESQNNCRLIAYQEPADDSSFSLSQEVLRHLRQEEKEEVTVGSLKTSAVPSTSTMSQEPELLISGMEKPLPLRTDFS

T1 sequence (Q86WV6 whole entry): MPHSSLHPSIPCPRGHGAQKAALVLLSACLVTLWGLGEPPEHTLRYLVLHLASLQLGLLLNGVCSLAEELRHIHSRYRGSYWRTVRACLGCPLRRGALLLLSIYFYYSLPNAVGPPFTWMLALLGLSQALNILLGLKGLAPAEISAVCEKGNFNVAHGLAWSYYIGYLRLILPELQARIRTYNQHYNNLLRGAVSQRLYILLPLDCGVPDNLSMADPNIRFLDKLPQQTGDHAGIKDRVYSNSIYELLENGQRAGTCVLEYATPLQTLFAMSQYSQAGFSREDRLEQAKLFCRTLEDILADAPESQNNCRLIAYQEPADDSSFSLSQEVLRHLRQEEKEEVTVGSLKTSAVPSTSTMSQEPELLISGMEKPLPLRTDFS

CCOC(=O)COC(CCn1c(=NC(=O)c2cc(C)nn2CC)n(C)c2cc(C(N)=O)ccc21)CCn1c(=NC(=O)c2cc(C)nn2CC)n(C)c2cc(C(N)=O)ccc21 (stereo not drawn) [Example 2, Ethyl (3-{5-carbamoyl-2-[(1-ethyl-3-methyl-5-pyrazolyl)carbonylimino]-3-methyl-2,3-dihydro-1H-1,3-benzimidazol-1-yl}-1-(2-{5-carbamoyl-2-[(1-ethyl-3-methyl-5-pyrazolyl)carbonylimino]-3-methyl-2,3-dihydro-1H-1,3-benzimidazol-1-yl}ethyl)propoxy)acetate]
IC50 [1]: 2500 nM
IC50 [2]: < 30 nM

CCn1nc(C)cc1C(=O)N=c1n(C)c2cc(C(N)=O)ccc2n1CCC(CCn1c(=NC(=O)c2cc(C)nn2CC)n(C)c2cc(C(N)=O)ccc21)OCC(=O)Nc1ccncn1 (stereo not drawn) [Example 8, 1-{3-[(N-4-Pyrimidinylcarbamoyl)methoxy]-5-{5-carbamoyl-2-[(1-ethyl-3-methyl-5-pyrazolyl)carbonylimino]-3-methyl-2,3-dihydro-1H-1,3-benzimidazol-1-yl}pentyl}-2-[(1-ethyl-3-methyl-5-pyrazolyl)carbonylimino]-3-methyl-2,3-dihydro-1H-1,3-benzimidazole-5-carboxamide]
IC50 [1]: 4700 nM
IC50 [2]: < 30 nM

CCn1nc(C)cc1C(=O)N=c1n(C)c2cc(C(N)=O)ccc2n1CCC(CCn1c(=NC(=O)c2cc(C)nn2CC)n(C)c2cc(C(N)=O)ccc21)OCC(=O)NC1CCN(C)CC1 (stereo not drawn) [Example 10, 1-{3-[(N-1-Methyl-4-piperidylcarbamoyl)methoxy]-5-{5-carbamoyl-2-[(1-ethyl-3-methyl-5-pyrazolyl)carbonylimino]-3-methyl-2,3-dihydro-1H-1,3-benzimidazol-1-yl}pentyl}-2-[(1-ethyl-3-methyl-5-pyrazolyl)carbonylimino]-3-methyl-2,3-dihydro-1H-1,3-benzimidazole-5-carboxamide]
IC50 [3]: 3.5 nM
IC50 [4]: 0.869 nM

CCn1nc(C)cc1C(=O)N=c1n(C)c2cc(C(N)=O)ccc2n1CCC(CCn1c(=NC(=O)c2cc(C)nn2CC)n(C)c2cc(C(N)=O)ccc21)OCC(=O)N1CCC[C@H]1c1cccc(OC)c1 (stereo partly drawn) [Example 11, 1-(3-{2-[(S)-2-(3-Methoxyphenyl)-1-pyrrolidinyl]-2-oxoethoxy}-5-{5-carbamoyl-2-[(1-ethyl-3-methyl-5-pyrazolyl)carbonylimino]-3-methyl-2,3-dihydro-1H-1 ,3-benzimidazol-1-yl}pentyl)-2-[(1-ethyl-3-methyl-5-pyrazolyl)carbonylimino]-3-methyl-2,3-dihydro-1H-1,3-benzimidazole-5-carboxamide]
IC50 [1]: 3400 nM
IC50 [3]: 2 nM
IC50 [4]: 0.862 nM

CCn1nc(C)cc1C(=O)N=c1n(C)c2cc(C(N)=O)ccc2n1CCC(CCn1c(=NC(=O)c2cc(C)nn2CC)n(C)c2cc(C(N)=O)ccc21)OCC(=O)N(Cc1ccc(OC)cc1)C1CC1 (stereo not drawn) [Example 14, 1-[3-({N-Cyclopropyl[(p-methoxyphenyl)methyl]carbamoyl}methoxy)-5-{5-carbamoyl-2-[(1-ethyl-3-methyl-5-pyrazolyl)carbonylimino]-3-methyl-2,3-dihydro-1H-1,3-benzimidazol-1-yl}pentyl]-2-[(1-ethyl-3-methyl-5-pyrazolyl)carbonylimino]-3-methyl-2,3-dihydro-1H-1,3-benzimidazole-5-carboxamide]
IC50 [4]: 0.659 nM

CCn1nc(C)cc1C(=O)N=c1n(C)c2cc(C(N)=O)ccc2n1CCC(CCn1c(=NC(=O)c2cc(C)nn2CC)n(C)c2cc(C(N)=O)ccc21)OCC(=O)N1[C@H](C)COC[C@@H]1C (stereo partly drawn) [Example 17, 1-(3-{2-[(3R,5S)-3,5-Dimethyl-4-morpholinyl]-2-oxoethoxy}-5-{5-carbamoyl-2-[(1-ethyl-3-methyl-5-pyrazolyl)carbonylimino]-3-methyl-2,3-dihydro-1H-1,3-benzimidazol-1-yl}pentyl)-2-[(1-ethyl-3-methyl-5-pyrazolyl)carbonylimino]-3-methyl-2,3-dihydro-1H-1,3-benzimidazole-5-carboxamide]
IC50 [4]: 0.54 nM

CCn1nc(C)cc1C(=O)N=c1n(C)c2cc(C(N)=O)ccc2n1CCC(CCn1c(=NC(=O)c2cc(C)nn2CC)n(C)c2cc(C(N)=O)ccc21)OCC(=O)N(Cc1ccc(OC)cc1)Cc1ccccn1 (stereo not drawn) [Example 19, 1-(5-{5-Carbamoyl-2-[(1-ethyl-3-methyl-5-pyrazolyl)carbonylimino]-3-methyl-2,3-dihydro-1H-1,3-benzimidazol-1-yl}-3-({[(p-methoxyphenyl)methyl][(2-pyridyl)methyl]carbamoyl}methoxy)pentyl)-2-[(1-ethyl-3-methyl-5-pyrazolyl)carbonylimino]-3-methyl-2,3-dihydro-1H-1,3-benzimidazole-5-carboxamide]
IC50 [4]: 1.11 nM

CCn1nc(C)cc1C(=O)N=c1n(C)c2cc(C(N)=O)ccc2n1CCC(CCn1c(=NC(=O)c2cc(C)nn2CC)n(C)c2cc(C(N)=O)ccc21)OCC(=O)N1CCC[C@@H]1c1ccc(OC)cc1 (stereo partly drawn) [Example 20, 1-(3-{2-[(R)-2-(p-Methoxyphenyl)-1-pyrrolidinyl]-2-oxoethoxy}-5-{5-carbamoyl-2-[(1-ethyl-3-methyl-5-pyrazolyl)carbonylimino]-3-methyl-2,3-dihydro-1H-1,3-benzimidazol-1-yl}pentyl)-2-[(1-ethyl-3-methyl-5-pyrazolyl)carbonylimino]-3-methyl-2,3-dihydro-1H-1,3-benzimidazole-5-carboxamide]
IC50 [4]: 0.95 nM

CCn1nc(C)cc1C(=O)N=c1n(C)c2cc(C(N)=O)ccc2n1CCC(CCn1c(=NC(=O)c2cc(C)nn2CC)n(C)c2cc(C(N)=O)ccc21)OCC(=O)N1CCOC[C@@H]1c1ccccc1 (stereo partly drawn) [Example 30, 1-(3-{2-[(S)-3-Phenyl-4-morpholinyl]-2-oxoethoxy}-5-{5-carbamoyl-2-[(1-ethyl-3-methyl-5-pyrazolyl)carbonylimino]-3-methyl-2,3-dihydro-1H-1,3-benzimidazol-1-yl}pentyl)-2-[(1-ethyl-3-methyl-5-pyrazolyl)carbonylimino]-3-methyl-2,3-dihydro-1H-1,3-benzimidazole-5-carboxamide]
IC50 [1]: 3600 nM
IC50 [3]: 3.7 nM
